Data reported in patent publication US8722088B2, “Pharmaceutical compositions and methods for the treatment of prostate cancer” (Ferring International Center S.A., priority 2009, dated 2014).
“Also recorded” adds a separate entry of the source. Like-named read-outs stand apart in the source and are kept apart here. Where a SMILES comes first, the peptide text is derived from it. [ ]: non-standard residue; d: D form. The star is where a group is joined. dPhe(4-NHCONH2) = NC(=O)Nc1ccc(C[C@@H](N)C(=O)O)cc1; Dihydroorotyl(S) = O=C1C[C@@H](C(=O)*)NC(=O)N1; dPhe(4-Cl) = N[C@H](Cc1ccc(Cl)cc1)C(=O)O; Phe(4-NH2) = Nc1ccc(C[C@H](N)C(=O)O)cc1; d2Nal = N[C@H](Cc1ccc2ccccc2c1)C(=O)O; Lys(iPr) = CC(C)NCCCC[C@H](N)C(=O)O; d3Pal = N[C@H](Cc1cccnc1)C(=O)O

Experiments:
[1] = human, in vivo
Description: At the data cut-off date (i.e., seven months after commence of the clinical trial), 133 patients with prostate cancer were exposed to degarelix in the Phase 2, three-month dosing regimen clinical program (CS18).

[2] = human, in vivo, 80 mg
[3] = clinical; conditions: human, in vivo, 240 mg
Description: A three-month dosing regimen Phase 2 study investigated three different dosing regimens. After a starting dose of […] (with a concentration of 40 mg/mL of solvent), a further dose (i.e., maintenance dose) of 240 mg was given on Day 28, and then at Months 3, 6, and 9 or at Months 4, 7, and 10. Maintenance doses of 240 mg were evaluated initially at concentrations of 40 mg/mL and 60 mg/mL in this study, based on the observed results by different PK profiles of different concentrations. The patients were randomized in parallel to one of three different three-month maintenance dosing regimens of degarelix:
Thus, patients with lower degarelix plasma levels were more likely to have a testosterone level>0.5 ng/mL during the one year treatment period. […] This is consistent with the observation that for most patients, the time of first occurrence of a testosterone level>0.5 ng/mL was three months after a previous dose, at the time of trough degarelix plasma levels. The median trough degarelix plasma levels in the study ranged from about 6.5-7.5 ng/mL.

[4] = clinical; conditions: male, human, in vivo, sc
Description: (§2) The present study included a starting degarelix dose of 240 mg (with a concentration of 40 mg/mL of solvent), followed by maintenance doses of degarelix: i.e., 360 mg (with a concentration of 60 mg/mL of solvent) or 480 mg (with a concentration of 60 mg/mL of solvent), the latter administered at Months 1, 4, 7, and 10.
(§3) The study was open labeled and patients received a starting dose of 240 mg (with a concentration of 40 mg/mL of solvent) at Month 0 followed by one of two degarelix maintenance dose treatment regimens: 360 mg (with a concentration of 60 mg/mL of solvent) at Months 1, 4, 7, and 10; or 480 mg (with a concentration of 60 mg/mL of solvent) at Months 1, 4, 7, and 10.
(§4) The starting dose was administered subcutaneously as two injections of 120 mg (with a concentration of 40 mg/ml of solvent, given as 2×3 mL injections). After 28 days a maintenance dose of 360 mg (with a concentration of 60 mg/mL, given as 2×3 mL injections) or 480 mg (with a concentration of 60 mg/mL, given as 2×4 mL injections) was administered, also in two injections (each of 240 mg). Thereafter, with three monthly intervals, maintenance doses were given, again in the form of two injections. […] At each visit, serum testosterone, prostate specific androgen (PSA), and plasma concentration of degarelix were measured by techniques well known in the art.

[5] = clinical; conditions: human, in vivo
Description: (§1) Throughout the ongoing degarelix development program, population pharmacokinetic/pharmacodynamic (PK/PD) modeling and simulations have been employed to get a better understanding of the PK and PD data, and the relationship between these and other parameters. […] Because of the variability in the population, it was considered that this median plasma concentration might not be sufficient to maintain long-term testosterone suppression in approximately 95% of the patients. It was therefore proposed that the dose administered should produce mean serum trough degarelix levels of >9 ng/ml or higher in the Phase 3 studies for the one-month dosing regimen program.

[6] = test system: serum testosterone; test: One-month dosing regimen clinical program: testosterone suppression to castrate level; format: in vivo, human; conditions: for testosterone response rate: Day 28 to Day 364
Description: Other studies establish that degarelix or pharmaceutically acceptable salt thereof at a dose of 240 mg (40 mg/mL) is an effective starting dose. […] With dosing at 0 months and an additional dosage at 1 month, it is believed that a steady state level is reached faster and this is (together with formulation, dose and concentration) a factor for consideration to obtain and maintain therapeutic levels in the patient. Use of a higher dose as the starting dose to have a ‘true’ 3 month depot is not feasible because of the combined requirements of a sufficient starting/loading phase release to allow buildup of degarelix plasma concentration; and at the same time sufficient long term release to achieve sufficiently high steady state concentration for 3 months. […] This is surprising given the high doses (and concentrations) of degarelix in the defined maintenance dose(s).

[7] = test system: serum testosterone; test: Previous studies, population PK/PD: proportion of patients with serum testosterone ≦0.5 ng/mL versus plasma degarelix concentration; format: in vivo, human
Description: as §1
The relationship between proportion of patients castrated [(T)≦0.5 ng/mL] and degarelix concentration after day 28 is illustrated in FIG. 1. FIG. 1 is based on data from 1473 prostate cancer patients in clinical studies by dividing PK levels into intervals 0-1, 1-2, 2-3 ng/mL and so forth and plotting observed proportions against PK interval midpoints together with a smoothing line with 95% confidence interval (CI). Based on this information, approximately 97% of the patients are castrated provided that degarelix concentrations stay above a threshold value of 9-10 ng/mL.

[8] = male, human, in vivo, sc
Description: as §2, §3, §4

[9] = test system: PSA; test: Clinical trial CS18: PSA change from baseline; format: in vivo, human
Description: PSA is a commonly used marker in the diagnosis of prostate cancer and has more recently also been used to monitor response to treatment as well as disease recurrence and progression (Fleming et al. (2006) Nat. Clin. Pract. Oncol. 3: 658-68; Lilja, et al. (2008) Nat. Rev. Cancer 8: 268-78). In general, higher levels of PSA are associated with more severe forms of prostate cancer, with metastatic stage prostate cancer being associated with the highest level of PSA (e.g., >50 ng/mL). Accordingly, rising PSA levels in patients undergoing prostate cancer treatment are associated with incomplete or failed efficacy of the treatment. Here, there were further reductions in PSA after Month 1 and the median reductions were sustained throughout the study period (median reductions of 96-97%).

CC(=O)N[C@H](Cc1ccc2ccccc2c1)C(=O)N[C@H](Cc1ccc(Cl)cc1)C(=O)N[C@H](Cc1cccnc1)C(=O)N[C@@H](CO)C(=O)N[C@@H](Cc1ccc(NC(=O)[C@@H]2CC(=O)NC(=O)N2)cc1)C(=O)N[C@H](Cc1ccc(NC(N)=O)cc1)C(=O)N[C@@H](CC(C)C)C(=O)N[C@@H](CCCCNC(C)C)C(=O)N1CCC[C@H]1C(=O)N[C@H](C)C(N)=O [Degarelix, D-Alaninamide, N-acetyl-3-(2-naphthalenyl)-D-alanyl-4-chloro-D-phenylalanyl-3-(3-pyridinyl)-D-alanyl-L-seryl-4-[[[(4S)-hexahydro-2,6-dioxo-4-pyrimidinyl]carbonyl]amino]-L-phenylalanyl-4-[(aminocarbonyl)amino]-D-phenylalanyl-L leucyl-N6-(1-methylethyl)-L-lysyl-L-prolyl] (Ac-[d2Nal][dPhe(4-Cl)][d3Pal]S[Phe(4-NH2)](Dihydroorotyl(S))[dPhe(4-NHCONH2)]L[Lys(iPr)]P[dA]-NH2)
hepatotoxicity: impairment of liver function [1]: do not show any clinically significant impairment of liver function
immediate anaphylactic reactions [1]: no immediate anaphylactic reactions reported
incidence of any injection site reaction [1]: 26%
injection site reactions of mild intensity [1]: 11%
injection site reactions of moderate intensity [1]: 11%
patients reporting severe injection site reactions [1]: 5%
mean trough levels of degarelix [2]: approximately 12 ng/mL
estimated median degarelix trough concentration [3]: < 9 ng/mL
level at 1 year [3]: ~7 ng/mL
level at 3 months after a previous dose [3]: 6.5 to 7.5 ng/mL
level at 1 year ([4]; 360 mg): ~10 ng/mL
level at 1 year ([4]; 480 mg): ~13 ng/mL
level at 672 h [5]: 7.34 ng/mL
level at 2016 h [5]: 4.54 ng/mL
sustained testosterone suppression for 3 months following an injection ([6]; doses of 240 mg, 160 mg or 80 mg): failed to sustain testosterone suppression for 3 months; also recorded: none of the doses tested in the one-month dosing regimen program could sustain testosterone suppression for 3 months
testosterone response rate ([6]; monthly maintenance 80 mg (20 mg/mL)): 98%
testosterone response rate ([6]; monthly maintenance 160 mg (40 mg/mL)): 100%
patients with testosterone suppressed to castrate level (T≦0.5 ng/mL) ([6]; starting dose 240 mg (40 mg/mL), first 28 days): 95%
patients achieving serum testosterone ≦0.5 ng/mL ([7]; Day 28, median trough plasma degarelix 7.34 ng/mL): 96%
patients having testosterone ≦0.5 ng/mL ([7]; Day 84, median plasma degarelix 4.54 ng/mL): 83%
estimated median degarelix trough concentration ([8]; 360 mg): above 9 ng/mL
estimated median degarelix trough concentration ([8]; 480 mg): above 9 ng/mL
PSA, Median % Change from Baseline ([9]; 360/60 mg, Day 28): −83.8%
PSA, Median % Change from Baseline ([9]; 360/60 mg, Day 56): −93.8%
PSA, Median % Change from Baseline ([9]; 360/60 mg, Day 84): −95.0%
PSA, Median % Change from Baseline ([9]; 360/60 mg, Day 112): −95.5%
PSA, Median % Change from Baseline ([9]; 360/60 mg, Day 140): −96.2%
PSA, Median % Change from Baseline ([9]; 360/60 mg, Day 168): −96.8%
PSA, Median % Change from Baseline ([9]; 360/60 mg, Day 196): −95.9%
PSA, Median % Change from Baseline ([9]; 360/60 mg, Day 224): −96.4%
PSA, Median % Change from Baseline ([9]; 360/60 mg, Day 252): −97.0%
PSA, Median % Change from Baseline ([9]; 360/60 mg, Day 280): −97.0%
PSA, Median % Change from Baseline ([9]; 360/60 mg, Day 308): −97.3%
PSA, Median % Change from Baseline ([9]; 360/60 mg, Day 336): −97.5%
PSA, Median % Change from Baseline ([9]; 360/60 mg, Day 364): −96.9%
PSA, Median % Change from Baseline ([9]; 360/60 mg, Last visit): −96.9%
PSA, Median % Change from Baseline ([9]; 480/60 mg, Day 28): −78.9%
PSA, Median % Change from Baseline ([9]; 480/60 mg, Day 56): −90.9%
PSA, Median % Change from Baseline ([9]; 480/60 mg, Day 84): −93.4%
PSA, Median % Change from Baseline ([9]; 480/60 mg, Day 112): −95.3%
PSA, Median % Change from Baseline ([9]; 480/60 mg, Day 140): −95.5%
PSA, Median % Change from Baseline ([9]; 480/60 mg, Day 168): −96.5%
PSA, Median % Change from Baseline ([9]; 480/60 mg, Day 196): −96.2%
PSA, Median % Change from Baseline ([9]; 480/60 mg, Day 224): −96.6%
PSA, Median % Change from Baseline ([9]; 480/60 mg, Day 252): −96.9%
PSA, Median % Change from Baseline ([9]; 480/60 mg, Day 280): −96.5%
PSA, Median % Change from Baseline ([9]; 480/60 mg, Day 308): −97.0%
PSA, Median % Change from Baseline ([9]; 480/60 mg, Day 336): −97.4%
PSA, Median % Change from Baseline ([9]; 480/60 mg, Day 364): −97.1%
PSA, Median % Change from Baseline ([9]; 480/60 mg, Last visit): −96.5%
median reductions in PSA sustained throughout the study period ([9]; CS18, after Month 1): 96-97%
PSA, Median % Change from Baseline ([9]; Total (both arms), Day 28): −81.2%
PSA, Median % Change from Baseline ([9]; Total (both arms), Day 56): −92.9%
PSA, Median % Change from Baseline ([9]; Total (both arms), Day 84): −94.5%
PSA, Median % Change from Baseline ([9]; Total (both arms), Day 112): −95.4%
PSA, Median % Change from Baseline ([9]; Total (both arms), Day 140): −95.9%
PSA, Median % Change from Baseline ([9]; Total (both arms), Day 168): −96.6%
PSA, Median % Change from Baseline ([9]; Total (both arms), Day 196): −96.2%
PSA, Median % Change from Baseline ([9]; Total (both arms), Day 224): −96.5%
PSA, Median % Change from Baseline ([9]; Total (both arms), Day 252): −96.9%
PSA, Median % Change from Baseline ([9]; Total (both arms), Day 280): −97.0%
PSA, Median % Change from Baseline ([9]; Total (both arms), Day 308): −97.2%
PSA, Median % Change from Baseline ([9]; Total (both arms), Day 336): −97.4%
PSA, Median % Change from Baseline ([9]; Total (both arms), Day 364): −96.9%
PSA, Median % Change from Baseline ([9]; Total (both arms), Last visit): −96.8%
